We go through 109 compounds from a melting point compilation (Tetko et al.).

Compound `CCCCCCC(=O)CCCCCC` registered a melting point of 33 °C.

`COc1cc(F)ccc1C#N`: the melting point was determined as 76 °C.

`Cn1c(=O)c(C2=NNC(=O)C2=NNc2ccc(Br)cc2)c(O)c2ccccc21` gave a melting point of 260 °C.

`CCNC(C)Cc1cccc(C(F)(F)F)c1` (centres undefined) displayed a melting point of 110 °C.

`Fc1c(F)c(F)c(Br)c(F)c1F`: the melting point is -31 °C.

As to `CC1CCCC(O)C1` (centres undefined), the melting point was -5.5 °C.

For the compound `CCCCCC=CC(=O)O`, the melting point was 5 to 6 °C.

`CC(C)OC(=O)C(O)(c1ccc(Cl)cc1)c1ccc(Cl)cc1` showed a melting point of 73 °C.

Take `COc1ccc(C(C)=O)cc1Cl`: the melting point is 75 °C.

In turn, `COC(=O)c1cc(C)c(Br)s1` had a melting point of 35 to 37 °C.

Compound `N#Cc1cccc(C(=O)Cl)c1` yielded a melting point of 38 to 44 °C.

The compound `NC(Cc1ccc(Br)cc1)C(=O)O` (racemic) had a melting point of 262 to 263 °C.

Consider `C=O`, for which the melting point was -92 °C.

For `CCCCC(=O)c1ccc2c(c1)OCCOCCOc1cc(C(=O)CCCC)ccc1OCCOCCO2`, the melting point was 117 to 133 °C.

Compound `FC(F)(F)C(F)(F)C(F)(F)C(F)(F)C(F)(F)C(F)(F)C(F)(F)C(F)(F)CCI` displayed a melting point of 82.5 °C.

As to `O=[N+]([O-])c1ccc(Oc2ccccc2)c([N+](=O)[O-])c1`, the melting point came out at 71 °C.

`Cc1ccc(Cl)nn1` showed a melting point of 57 °C.

`COc1ccc2c(c1)c(CC(=O)OCC(=O)O)c(C)n2C(=O)c1ccc(Cl)cc1` had a melting point of 150 °C.

As for `NN1C(=O)CSC1=S`, the melting point stood at 102 °C.

`O=C(CC(=O)c1ccccc1)c1ccccc1` came in with a melting point of 78 °C.

Take `Cc1cc(C)c(C2(C)CC(C(=O)c3cc4cc(Br)ccc4o3)C2)c(C)c1` (centres undefined): the melting point lay in the range of 208 to 209 °C.

`c1ccc2nn(C3CCCCC3)nc2c1` yielded a melting point of 46.5 °C.

The compound `O=c1c2ccccc2nc2n1CCc1c-2[nH]c2ccccc12` returned a melting point of 260 °C.

Compound `Clc1ccc2oc3c(Cl)c(Cl)c(Cl)c(Cl)c3c2c1` gave a melting point of 178 °C.

With `OC(CNc1ccccn1)c1ccccc1` (centres undefined), the melting point was determined as 83.5 °C.

With `O=C(O)COc1cccc(OCC(=O)O)c1`, the melting point turned out to be 194 °C.

For the compound `ON=Cc1ccc(Cl)cc1`, the melting point lay in the range of 100 to 102 °C.

`C[Si](C)(C)C1=CC2CCCCC2C1=O` (centres undefined) displayed a melting point of 59 °C.

`c1ccc2c(c1)c1cccc3ccc4cccc2c4c31` came in with a melting point of 180 to 182 °C.

Consider `Brc1ccc2sccc2c1`, for which the melting point lay in the range of 47 to 48 °C.

As for `CC(=O)OC1COC(C#N)C(OC(C)=O)C1OC(C)=O` (centres undefined), the melting point is 132 to 135 °C.

As for `Cc1cc(I)c(C)cc1I`, the melting point was 103 to 104 °C.

As to `COC(=O)C1(C(=O)OC)Cc2cc(C)ccc2C(=O)O1`, the melting point was 135 to 136 °C.

`CC(C)(O)C#N`: the melting point is -19 °C.

Compound `CCCCCCCCCCCCS(=O)(=O)Cl` came in with a melting point of 40.5 °C.

Turning to `CCOC(=O)c1sc2ncccc2c1N`, the melting point lay within 183 to 185 °C.

The compound `O=S(=O)(Cl)c1ccc(CBr)cc1` showed a melting point of 74 °C.

Compound `O=C(c1ccc2c3c(cccc13)CC2)C(Br)c1ccccc1` (centres undefined) came in with a melting point of 118 °C.

In turn, `C#CC1(O)CCC2(C)C(CCC3C4CCC(=O)C4(C)CCC32)C1` (centres undefined) yielded a melting point of 237 to 238 °C.

Compound `O=C(O)c1ccc(-c2cccnc2)cc1` returned a melting point of 271 to 274 °C.

`O=C(O)CCc1ccc(O)c(O)c1` came in with a melting point of 138 °C.

`c1c2c(cc3c1OCO3)CC2` returned a melting point of 62 °C.

Regarding `Cc1cncc(N2CCC(CO)CC2)n1`, the melting point lay within 103 to 107 °C.

Consider `COc1ccnc(-c2cc(OC)ccn2)c1`, for which the melting point fell in the range of 169 to 174 °C.

With `CC(=O)SC1CC2=CC(=O)CC(SC(C)=O)C2(C)C2CCC3(C)C(CCC3(C)O)C12` (centres undefined), the melting point was 206 °C.

As for `Oc1cc(Cl)c(-c2ccccc2)nn1`, the melting point lay in the range of 235 to 236 °C.

The compound `CC(C)C(C(=O)OC(C#N)c1cccc(Oc2ccccc2)c1)c1ccc(Cl)cc1` (centres undefined) returned a melting point of 60 °C.

`CSc1cc(-c2ccc(Oc3ccccc3)cc2)n[nH]1` displayed a melting point of 97 to 98.5 °C.

With `CC(Cl)C(C)Cl` (centres undefined), the melting point was -80 °C.

With `COCCN(C(=O)CCl)c1c(C)cccc1C`, the melting point was 46.3 °C.

`Cn1c(=O)c(C2=NNC(=O)C2=NNc2ccccc2Br)c(O)c2ccccc21` registered a melting point of 270 °C.

As for `N#Cc1c(F)cccc1I`, the melting point came out at 50 °C.

As to `C=C(C)C1CCC(C)CC1O` (centres undefined), the melting point was 78 °C.

`CCOC(=O)C1N=C(c2ccccc2F)c2cc(Cl)ccc2NC1=O` (centres undefined): the melting point amounted to 194 °C.

Turning to `CCOC(=O)c1ccc(OC(C)=O)cc1`, the melting point came out at 34 °C.

With `CC(=O)C(c1ccccc1)c1ccc(C(F)(F)F)cc1[N+](=O)[O-]` (centres undefined), the melting point is 91 °C.

`CC1CCC2(OC1)OC1CC3C4CCC5CC(O)CCC5(C)C4CC(=O)C3(C)C1C2C` (centres undefined) had a melting point of 266 °C.

`OCC(F)(F)C(F)(F)C(F)(F)C(F)(F)C(F)(F)C(F)(F)C(F)(F)C(F)(F)C(F)(F)F` displayed a melting point of 87 to 91 °C.

Take `CCCCCCCCc1ccc(NC(=O)c2ccc(CC)cc2)cc1`: the melting point came to 109 °C.

Compound `O=C(O)CCCCCCCO` registered a melting point of 51 to 57 °C.

On to `S=C(Nc1ccccc1)N1CC(c2ccccc2)CC1c1ccccc1` (centres undefined), for which the melting point was 188 °C.

The compound `CC(=O)OCC1=CC2CC(=O)C3=COC(OC4OC(CO)C(O)C(O)C4O)C1C32` (centres undefined) yielded a melting point of 128 °C.

Take `O=C(O)C(O)(c1ccccc1Cl)c1ccccc1Cl`: the melting point amounted to 162 °C.

For the compound `CCC(C)n1c(=O)[nH]c(C)c(Br)c1=O` (centres undefined), the melting point came to 158 °C.

As for `CCOC(=O)c1cnn(-c2ccc([N+](=O)[O-])cc2)c1N`, the melting point was in the range of 203 to 204 °C.

The compound `CC(=O)C(c1ccccc1)c1ccccc1` showed a melting point of 61 °C.

`Cc1ccc(C(=O)C=Cc2ccc(Cl)cc2)cc1` displayed a melting point of 122 °C.

`CS(=O)(=O)c1ccc(C(=O)O)c(Cl)c1` displayed a melting point of 194 °C.

Compound `CN1CCC(CCCC2CCN(C)CC2)CC1` registered a melting point of 13.7 °C.

`Cc1ccc(-n2ncc(Cl)c(Cl)c2=O)cc1` returned a melting point of 144 to 146 °C.

`O=Cc1ccc2ccc3cccc4ccc1c2c34` yielded a melting point of 127 °C.

As for `N#CC(c1ccc(Cl)cc1)N1CCOCC1` (centres undefined), the melting point lay in the range of 76 to 77 °C.

In turn, `O=C(CCCN1CCC(n2c(=O)[nH]c3ccccc32)CC1)c1ccc(F)cc1` displayed a melting point of 170 °C.

In turn, `N#Cc1cc(I)ccc1F` came in with a melting point of 72 °C.

In the case of `CC(Nc1ccc(Br)cn1)=C(C#N)C(=O)c1ccccc1`, the melting point was in the range of 179 to 181 °C.

On to `c1ccc2c(c1)-c1ccccc1-2`, for which the melting point is 114 to 115 °C.

As for `CCOC(=O)CNc1cc(NCC(=O)OCC)c(N)cc1N`, the melting point was > 360 °C.

Consider `CN(CCOc1ccc(CC2SC(=O)NC2=O)cc1)c1ccccn1` (centres undefined), for which the melting point is 122 °C.

For `CCCC(=O)N(C)C`, the melting point was -40 °C.

Consider `NC(=O)c1ccc(Cl)cc1Cl`, for which the melting point was found to be 192 °C.

Consider `N[C@@H](CCl)C(=O)O`, for which the melting point fell in the range of 156 to 157 °C.

`CC(=O)OC1CC[C@H]2[C@@H]3CCC4CC(=O)CC[C@]4(C)[C@H]3CC[C@]12C` (some centres undefined): the melting point was determined as 146 °C.

The compound `OCc1ccc(-c2cccs2)s1` registered a melting point of 51 to 54 °C.

Compound `O=C1SC(Cl)(Cl)c2nc3c(cc21)C(=O)SC3(Cl)Cl` yielded a melting point of 178 to 185 °C.

`Cc1nccc(O)c1OCc1ccc(Cl)cc1`: the melting point lay in the range of 195 to 199 °C.

As to `COc1ccc(OCc2ccccc2)cc1`, the melting point lay in the range of 71 to 73 °C.

As for `COc1ccc(-c2onc(C(=O)c3ccc([N+](=O)[O-])cc3)c2S(=O)(=O)c2ccccc2)cc1`, the melting point came out at 128 °C.

With `CCCCCCCCOC(=O)CCCC`, the melting point was -42.3 °C.

In turn, `O=c1c2ccccc2[nH]c2ccccc12` had a melting point of 360 to 362 °C.

For the compound `C[Si](C)(C)Oc1ccccc1`, the melting point was -55 °C.

For the compound `CC(=O)C(C(C)=O)C(c1ccc(C)o1)c1ccc(C)o1`, the melting point was 60 °C.

For the compound `Cc1noc(-c2ccc(Br)cc2)n1`, the melting point lay in the range of 97 to 98 °C.

`O=C(O)C(F)(F)C(F)(F)C(F)(F)C(F)(F)C(F)(F)C(F)(F)C(F)(F)C(F)(F)C(F)(F)C(F)(F)C(F)(F)C(F)(F)C(F)(F)C(F)(F)C(F)(F)F` returned a melting point of 154 to 155 °C.

The compound `Cc1ccc(O[Si]23OCCN(CCO2)CCO3)cc1` yielded a melting point of 188 °C.

As for `SCCCCS`, the melting point is -53.9 °C.

For `FC(F)(F)c1cnc(S)c(Cl)c1`, the melting point lay within 145 to 149 °C.

Turning to `O=C1CN=C(c2ccccc2)c2cc([N+](=O)[O-])ccc2N1`, the melting point is 225 °C.

With `CCOC(=O)C(C(C)=O)C(C)C(C(C)=O)C(=O)OC1CC(C)CCC1C(C)C` (centres undefined), the melting point was determined as 155 °C.

For the compound `CC(=O)c1c(F)ccc(F)c1C(=O)O`, the melting point is 86 °C.

The compound `Nc1nnc(-c2ccccc2)c(Nc2ccc(Br)cc2)n1` registered a melting point of 203 °C.

Turning to `CCCCCCCCOC(=O)CC`, the melting point was -42.6 °C.

Turning to `O=C(c1ccccc1)N(O)c1ccccc1`, the melting point was in the range of 119 to 123 °C.

`Clc1ccc(Cc2ccc(Cl)cc2)cc1` gave a melting point of 55.5 °C.

Compound `Cc1cc(O)c(C(C)(C)C)cc1Sc1cc(C(C)(C)C)c(O)cc1C` displayed a melting point of 162 °C.

The compound `O=c1oc2ccccc2c(O)c1C(CC(O)c1ccc(-c2ccc(Br)cc2)cc1)c1ccccc1` (centres undefined) returned a melting point of 199 °C.

`C1CN2CCN3CCN4CCN1C2C43` (centres undefined) registered a melting point of 30 °C.

Turning to `O=C1CCC(C(=O)O)=NN1`, the melting point was in the range of 199 to 200 °C.

`ON=C1CCCCCN1` came in with a melting point of 168 to 170 °C.

`O=[N+]([O-])Nc1ccccc1` showed a melting point of 47.3 °C.
